Data: patent US8916604B2, “Compositions and methods for epigenetic modification of nucleic acid sequences” (Rutgers, The State University of New Jersey, priority 2011, dated 2014)

Columns and labels:
[1] = system: antioxidant response element (ARE); assay: ARE-luciferase reporter assay with combination index calculation; type: cell-based, human
Description: The stably transfected single clone HepG2-ARE-C8 (HepG2-C8) cell line has been established previously in our laboratory using the […]-luciferase reporter gene. The cells were maintained in Dulbecco's modified Eagle medium supplemented with 10% fetal bovine serum (FBS), 1.17 g/l sodium bicarbonate, and 100 unit/ml penicillin, 100 μg/ml streptomycin at 37° C. in a humidified incubator with 5% CO2. The HepG2-C8 cells were cultured in 12-well plates and each well contained 1 million cells in 1 ml of 10% FRS medium. The cells were treated with compounds for 24 h. The luciferase activity was determined using a luciferase kit from Promega (Madison, USA) according to the manufacturer's instructions. Briefly, after treatments for 24 h, the cells were washed twice with ice-cold phosphate buffered-saline (PBS, pH 7.4) and harvested in 1× reporter lysis buffer and […]. After centrifugation at 4° C., 12000 rpm for 5 min, a 10 μl aliquot of the supernatant was assayed for luciferase activity with a Sirius luminometer (Berthold Detection System GmbH, Pforzheim, Germany). The luciferase activity was normalized against protein concentration, determined by a BCA protein assay (Pierce, Rockford, USA), and expressed as the fold induction over the luciferase activity of control vehicle-treated cells. At least two to three independent studies were conducted in triplicates. To determine the synergistic effect between the combination of two different compounds, the combination index (CI) was calculated with the following formula: […] This approach is based on the Loewe additivity model and although the exact mechanism of interaction may be unknown, this model is one of the most commonly used reference models for evaluating potential drug-drug interactions Lee et al., J Biopharm Stat 2007; 17: 461-480).

5-methylcytosine (5-MC) = assay: IHC staining of TRAMP prostate tissue, global CpG methylation; type: in vivo, mouse; conditions: D-G1 and D-G2, p<0.001
Description: Sections (4 μm) were cut from the paraffin embedded prostate tissue and mounted on glass slides. The slides Were deparafinized in xylene and antigen unmasking was performed by applying proteinase K digestion directly on the slides for 15 min. Endogenous peroxidase was blocked by incubating in 3% […] for 5 min, and ApopTag Plus Peroxidase In Situ Apoptosis Detection Kit (Millipore, Temecula, Calif., U.S.A.) was used to detect apoptotic cells. For detection of proliferative cells, monoclonal mouse anti-proliferating cell nuclear antigen (PCNA) antibody (Clone PC10, 1:50, Dako North America, Carpinteria, Calif., U.S.A.) was used (12). The staining was performed following as the manufacturer's protocols. Anti-5-methylcytosine (5-MC) mouse monoclone antibody (Clone 162 33 D3, 1:50, EMD Chemicals, Philadelphia, Pa., U.S.A.) was used to detect genome-wide methylated DNA. […] Quantitation of IHC staining was done using the Aperio ScanScope® GL system according to the manufactures protocol (Aperio Technologies Inc., Vista, Calif., U.S.A.). […] The Aperio ImageScopoe software (v 10.1.3.2028) allowed the unbiased quantification and quantitative analysis of the IHC staining of biomarkers of prostate tumor samples obtained from untreated control versus the treated TRAMP mice.

[2] = oral, 2 mg/kg/day; cited from earlier work
HDAC2 = assay: Western blot in TRAMP C1 cells; type: cell-based, mouse
Description: (§1) The DIM used in the study contains approximately 98% of DIM purchased from Sigma-Aldrich t St. Louis, Mo., USA), TRAMP C1 cells (provided by Dr. Barbara Foster, Department of Pharmacology and Therapeutics, Roswell Park Cancer institute, Buffalo. NY), originally derived from TRAMP prostate tumor, were cultured in Dulbecco's Modified Eagle's Medium (Invitrogen Corp., Carlsbad, Calif. U.S.A.) supplemented with 10% (V/V) fetal bovine serum (FBS) (Invitrogen Corp., Grand Island, N.Y., U.S.A.), penicillin 100 U/ml, and streptomycin 100 μg/ml (Invitrogen Corp., Grand Island, N.Y., U.S.A.), Cells were maintained in a humidified incubator with 5% CO2 at 37° C. Cells were seeded in 10 cm plates for 24 h and then treated with 0.1% DMSO (control) or different concentrations of DIM in 1% FBS containing medium for 5 days. The medium was changed every 2 days (20), The TRAMP C1 cells or dorso-lateral prostate tissues collected from treated and control groups were pooled and homogenized with RIPA buffer (Cell Signaling Technology, Danvers, Mass., U.S.A.) and 10 μg/ml protease inhibitor cocktail (EMD Chemicals, Philadelphia, Pa., U.S.A.). Protein (20 μg) was loaded onto 4-15% SDS-PAGE (Bio-Rad Laboratories, Hercules, Calif., U.S.A.). After separation by SDS-PAGE, the protein was transferred onto nitrocellulose membrane (Millipore Corp., Billerica, Mass., U.S.A.), and then was blocked in 5% bovine serum albumin (BSA) (Fisher Scientific, Fair Law, J. U.S.A.) in tris buffer saline tween-20 (TBST) solution for 1 h. Membranes were probed using the different mono- or polyclonal-antibodies (1:1000) overnight at 4″C. Blots were washed with TBST solution for 15 min 4 times and incubated with the respective secondary antibodies for 1 hr. After washing min 4 times with TBST solution, the immunoreactive bands were determined by adding SuperSignal West Femto mix (1:1 mix of stable peroxide buffer and luminol/enhancer solution (Thermo Scientific, Rockford, Ill., U.S.A.) to detect immunoreactive bands. The bands were visualized and quantified by BioRad ChemiDoc XRS system (Hercules, Calif., U.S.A.). The primary antibodies used were β-actin, Nrf2, NQO1 (Santa Cruz Biotechnology, Santa Cruz, Calif., U.S.A.), HDAC1, HDAC2, HDAC3, HDAC4 (Cell Signaling Technology Inc., Danvers Mass., U.S.A.), HDAC8 (Proteintech Group Inc., Chicago, Ill., U.S.A.) and DNMT1, DNMT3a, DNMT3b (Imgenex, San Diego, Calif., U.S.A.). The secondary antibodies used were goat polyclonal IgG for β-actin and NQO1, rabbit polyclonal IgG for Nrf2, HDAC1, HDAC2, HDAC3, HDAC4 and HDAC8, and mouse polyclonal IgG for DNMT1, DNMT3a, DNMT3b (Santa Cruz Biotechnology, Santa Cruz, Calif., U.S.A.),

NQO1 = assay: Western blot in TRAMP C1 cells; type: cell-based, mouse
Description: as §1

Nrf2 = assay: Western blot in TRAMP C1 cells; type: cell-based, mouse
Description: as §1

DNMT3b = assay: Western blot in TRAMP C1 cells; type: cell-based, mouse
Description: as §1

HDAC3 = assay: Western blot in TRAMP C1 cells; type: cell-based, mouse
Description: as §1

Question: What does the source list for `c1ccc2c(Cc3c[nH]c4ccccc34)c[nH]c2c1` [DIM, 3,3′-diindolylmethane]?
Answer: induction of ARE-luciferase ([1]; 75 μM, 24 h, compared with any other treatment (p<0.05)): strongly induced; induction of ARE-luciferase ([1]; doses lower than 25 μM, 10% FBS medium (data not shown)): no significant induction; 5-MC IHC staining of the prostate tissue (5-methylcytosine (5-MC)): significantly decreased; tolerability [2]: well tolerated with no significant toxicity; HDAC2 protein expression (HDAC2): suppress; NQO1 protein levels (NQO1): significantly induced; Nrf2 protein levels (Nrf2): significantly induced; DNMT3b protein level (DNMT3b): suppressed; HDAC3 protein expression (HDAC3): suppress
